Experimental data published in ChEMBL document CHEMBL3352746, “Synthesis and anticancer activity of quinopimaric and maleopimaric acids’ derivatives” (Bioorg Med Chem, 2014).
Active and inactive are the calls of the source. The rule behind the calls is not given here.

How the values were obtained:
Format in all cases: functional
[1] = (§1) Cytotoxicity against human NCI60 cells assessed as cell growth at 10 uM; settings: read-out: Activity
NCI60 = assay: as §1
SR = assay: Cytotoxicity against human SR cells assessed as cell growth at 10 uM; settings: read-out: Activity
TK-10 = assay: Cytotoxicity against human TK10 cells assessed as cell growth at 10 uM; settings: read-out: Activity
[2] = Cytotoxicity against human HL60 cells assessed as cell growth at 10 uM; settings: HL-60, read-out: Activity
HCC 2998 = assay: Cytotoxicity against human HCC2998 cells assessed as cell growth at 10 uM; settings: read-out: Activity
RPMI-8226 = assay: Cytotoxicity against human RPMI8226 cells assessed as cell growth at 10 uM; settings: read-out: Activity
T47D = assay: Cytotoxicity against human T47D cells assessed as cell growth at 10 uM; settings: read-out: Activity

Compound: COC(=O)[C@]1(C)CCC[C@]2(C)[C@H]3C[C@@H]4[C@H]5[C@@H]6Cc7[nH]c(=S)[nH]c7[C@H]5[C@@]3(CC[C@H]21)CC4(C(C)C)O6
- growth at 10 µM [1]: > 32%

Compound: COC(=O)[C@]1(C)CCC[C@]2(C)[C@H]3C[C@H]4C(C(C)C)=C[C@]3(CC[C@H]21)[C@@H]1c2[nH]c3ccccc3c2CC(=O)[C@@H]14
- growth at 10 µM [1]: > 32%

Compound: COC(=O)[C@]1(C)CCC[C@]2(C)[C@H]3C[C@@H]4[C@H]5[C@@H]6CC/C(=N\O)[C@H]5[C@@]3(CC[C@H]21)CC4(C(C)C)O6
- growth at 10 µM [1]: > 32%

Compound: COC(=O)[C@]1(C)CCC[C@]2(C)[C@H]3C[C@H]4C(C(C)C)=C[C@]3(CC[C@H]21)[C@@H]1NC(=O)CCC2(OCCO2)[C@@H]14
- growth at 10 µM [1]: > 32%

Compound: COC(=O)C(CCSC)NC(=O)[C@]1(C)CCC[C@]2(C)[C@H]3C[C@H]4C(C(C)C)=C[C@]3(CC[C@H]21)[C@@H]1C(=O)CC[C@H](OC(=O)CCC(=O)O)[C@@H]14 (stereo not given in full)
- growth at 10 µM [1]: > 32%

Compound: COC(=O)[C@]1(C)CCC[C@]2(C)[C@H]3C[C@H]4C(C(C)C)=C[C@]3(CC[C@H]21)[C@@H]1/C(=N/O)CC[C@H](O)[C@@H]14
- growth at 10 µM [1]: > 32%

Compound: COC(=O)[C@]1(C)CCC[C@]2(C)[C@H]3C[C@H]4C5C[C@]3(CC[C@H]21)[C@@H]1/C(=N/O)CC[C@H](OC5(C)C)[C@@H]14
- growth at 10 µM [1]: > 32%

Compound: COC(=O)[C@]1(C)CCC[C@]2(C)[C@H]3C[C@@H]4[C@H]5[C@@H]6Cc7cnn(-c8ccccc8)c7[C@H]5[C@@]3(CC[C@H]21)CC4(C(C)C)O6
- growth at 10 µM [1]: > 32%

Compound: CC(C)C1=C[C@]23CC[C@@H]4[C@](C)(CCC[C@@]4(C)C(=O)O)[C@H]2C[C@H]1[C@H]1C(=O)OC(=O)[C@H]13
- growth at 10 µM [1]: > 32%

Compound: COC(=O)[C@]1(C)CCC[C@@]2(C)[C@H]1CC[C@]13C=C(C(C)C)[C@H](C[C@H]21)C1=C3C(=O)C=CC1=O
- Activity (NCI60): Active
- growth at 10 µM (SR): 15.6%

Compound: COC(=O)[C@]1(C)CCC[C@]2(C)[C@H]3C[C@@H]4[C@H]5[C@@H]6Cc7cn[nH]c7[C@H]5[C@@]3(CC[C@H]21)CC4(C(C)C)O6
- growth at 10 µM [1]: > 32%

Compound: COC(=O)[C@]1(C)CCC[C@]2(C)[C@H]3C[C@@H]4[C@H]5[C@@H]6CCC(=O)[C@H]5[C@@]3(CC[C@H]21)CC4(C(C)C)O6
- growth at 10 µM [1]: > 32%

Compound: COC(=O)[C@]1(C)CCC[C@]2(C)[C@H]3C[C@@H]4[C@H]5[C@@H]6Cc7c([nH]c8ccccc78)[C@H]5[C@@]3(CC[C@H]21)CC4(C(C)C)O6
- growth at 10 µM [1]: > 32%

Compound: CC(C)C1=C[C@@]23CC[C@@H]4[C@](C)(CCC[C@@]4(C)C(=O)O)[C@H]2C[C@@H]1[C@H]1C(=O)CCC(=O)[C@H]13
- growth at 10 µM (TK-10): 28.4%
- Activity (NCI60): Active

Compound: COC(=O)CCNC(=O)[C@]1(C)CCC[C@]2(C)[C@H]3C[C@H]4C(C(C)C)=C[C@]3(CC[C@H]21)[C@@H]1C(=O)CCC(=O)[C@@H]14
- growth at 10 µM [1]: > 32%

Compound: COC(=O)[C@]1(C)CCC[C@]2(C)[C@H]3C[C@H]4C(C(C)C)=C[C@]3(CC[C@H]21)[C@@H]1C(=O)[C@H]2O[C@H]2C(=O)[C@@H]14
- Activity (NCI60): Active
- growth at 10 µM (SR): 8.07%

Compound: COC(=O)[C@]1(C)CCC[C@]2(C)[C@H]3C[C@H]4C5C[C@]3(CC[C@H]21)[C@@H]1C(=O)CC[C@H](OC5(C)C)[C@@H]14
- growth at 10 µM [1]: > 32%

Compound: COC(=O)CCNC(=O)[C@]1(C)CCC[C@]2(C)[C@H]3C[C@H]4C(C(C)C)=C[C@]3(CC[C@H]21)[C@@H]1C(=O)CC[C@H](O)[C@@H]14
- growth at 10 µM [1]: > 32%

Compound: COC(=O)[C@]1(C)CCC[C@]2(C)[C@H]3C[C@H]4C(C(C)C)=C[C@]3(CC[C@H]21)[C@@H]1C(=O)CCC2(OCCO2)[C@@H]14
- Activity (NCI60): Active
- growth at 10 µM (SR): 31.2%
- growth at 10 µM [2]: 28.7%

Compound: COC(=O)[C@]1(C)CCC[C@]2(C)[C@H]3C[C@H]4C(C(C)C)=C[C@]3(CC[C@H]21)[C@@H]1c2[nH]c3ccccc3c2-c2c([nH]c3ccccc23)[C@@H]14
- growth at 10 µM [1]: > 32%

Compound: COC(=O)[C@]1(C)CCC[C@]2(C)[C@H]3C[C@H]4C(C(C)C)=C[C@]3(CC[C@H]21)[C@@H]1NC(=O)CC[C@H](O)[C@@H]14
- growth at 10 µM [1]: > 32%

Compound: COC(=O)[C@]1(C)CCC[C@]2(C)[C@H]3C[C@H]4C(C(C)C)=C[C@]3(CC[C@H]21)[C@@H]1/C(=N/O)CCC2(OCCO2)[C@@H]14
- Activity (NCI60): Active
- growth at 10 µM (HCC 2998): -9.91%
- growth at 10 µM (RPMI-8226): 3.94%
- growth at 10 µM (T47D): 30.7%
